Test results reported in PubChem BioAssay (NCI).
“And” between values parts separate entries of the source, which are not always exact repeats. Equal entries are not always repeated.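 Growth conditions: 96-well plates. Treatment: test compound, 48 hours, 5 concentrations. Analysis: linear interpolation between bracketing concentrations; unreached endpoints set to highest concentration. The concentration for 50% growth inhibition is given as GI50. TGI denotes the concentration required for complete inhibition of growth.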

Key:
Assay in all cases: NCI-60 cell line screen, 48 h
COLO 205 colon = tested on: COLO 205 colon
MCF7 breast = tested on: MCF7 breast
MOLT-4 leukemia = tested on: MOLT-4 leukemia
NCI-H522 lung = tested on: NCI-H522 lung
SF-268 CNS = tested on: SF-268 CNS
SF-539 CNS = tested on: SF-539 CNS
SK-MEL-2 melanoma = tested on: SK-MEL-2 melanoma
SK-MEL-28 melanoma = tested on: SK-MEL-28 melanoma
U251 CNS = tested on: U251 CNS
MDA-MB-435 = tested on: MDA-MB-435

SMILES | GI50 (COLO 205 colon) | TGI (COLO 205 colon) | GI50 (MCF7 breast) | TGI (MCF7 breast) | GI50 (MOLT-4 leukemia) | TGI (MOLT-4 leukemia) | GI50 (NCI-H522 lung) | TGI (NCI-H522 lung) | GI50 (SF-268 CNS) | TGI (SF-268 CNS) | GI50 (SF-539 CNS) | TGI (SF-539 CNS) | GI50 (SK-MEL-2 melanoma) | TGI (SK-MEL-2 melanoma) | GI50 (SK-MEL-28 melanoma) | TGI (SK-MEL-28 melanoma) | GI50 (U251 CNS) | TGI (U251 CNS) | TGI (MDA-MB-435) | GI50 (MDA-MB-435)
NC(=O)c1cccc(-c2cc(C(N)=O)ccc2Cl)c1 | 3.21 µM | > 100 µM | 1.01 µM | > 100 µM | 2.22 µM | 95.7 µM | 2.39 µM | 23.2 µM | 5.68 µM | > 100 µM | 1.65 µM | 4.85 µM | 5.21 µM | > 100 µM | 7.17 µM | > 100 µM | 2.88 µM | > 100 µM | – | –
CC(C)=Nn1cnc(C(=N)C#N)c1N | – | > 100 µM | – | > 100 µM | – | > 100 µM | – | > 100 µM | – | > 100 µM | – | > 100 µM | – | > 100 µM | – | > 100 µM | – | > 100 µM | – | –
CCOP(=O)(OCC)C1(O)CC(n2cc(C)c(=O)[nH]c2=O)OC1CO (stereo unspecified) | – | > 100 µM | – | > 100 µM | – | – | – | > 100 µM | – | > 100 µM | – | > 100 µM | – | > 100 µM | – | > 100 µM | – | > 100 µM | > 100 µM | –
CC1C2CC(C/C2=N/O)C1(C)C (stereo unspecified) | – | > 100 µM | – | > 100 µM | – | > 100 µM | – | > 100 µM | – | > 100 µM | – | > 100 µM | – | – | – | > 100 µM | – | > 100 µM | > 100 µM | –
CSc1nc(C#N)c(N)n1C | – | > 100 µM | – | – | – | > 100 µM | – | > 100 µM | – | > 100 µM | – | > 100 µM | – | > 100 µM | – | > 100 µM | – | > 100 µM | > 100 µM | –
COc1cc(C2CC(=O)Nc3c2cc(Br)c2ccccc32)cc(Br)c1OC (stereo unspecified) | 2.06 µM | > 100 µM | 0.642 µM | > 100 µM | 2.78 µM | > 47.6 µM | – | – | 4.63 µM | > 100 µM | 3.27 µM | > 58.6 µM | 3.67 µM | 27.2 µM | 2.98 µM | > 100 µM | 1.42 µM | 3.7 µM | 0.864 µM | 0.247 µM
CC(=O)C12C[C@](C#N)(N3CCCCCC3)C1C=Cc1ccccc12 (stereo partly specified) | – | > 100 µM | – | > 100 µM | – | > 100 µM | – | > 100 µM | – | > 100 µM | – | > 100 µM | – | – | – | > 100 µM | – | > 100 µM | > 100 µM | –
CCN(CC)CCC(CNc1c(C)cnc2cc(Cl)ccc12)c1ccc(Cl)cc1 (stereo unspecified) | – | – | 3.27 µM | 16.3 µM | 5.27 µM | 23.8 µM | 4.43 µM | 17.3 µM | 11.1 µM | 26.1 µM | 1.63 µM | 3.31 µM | 3.91 µM | 14.1 µM | – | – | 3.83 µM | 13.2 µM | – | –
COc1ccc(-c2ccc(/C=N/n3c(COc4ccccc4Cl)n[nH]c3=S)o2)c([N+](=O)[O-])c1 | 40.2 µM | > 100 µM | 18.7 µM | 40.5 µM | – | – | 49 µM | > 100 µM | 32.3 µM | 91.7 µM | – | – | – | – | 55 µM | > 100 µM | 22 µM | 57.5 µM | 46.6 µM | 20 µM
CC1=C[C@@H](C)C[C@]2(C)CC[C@H](O2)[C@]23CC[C@](C)(C[C@H](O2)[C@@H]2O[C@@](C)(CC2=O)[C@@H](O)[C@H]2CC[C@@]4(CCC[C@@H](O4)[C@H](C)C(=O)O[C@H]4C[C@H]([C@]5(O)OCC[C@H](C)[C@@H]5O)O[C@H]4C=C1)O2)O3 | – | 0.00188 µM | – | > 10 µM | – | > 10 µM | – | > 10 µM | – | 0.0219 µM | – | 0.00503 µM | – | > 10 µM | – | 0.0233 µM | – | > 10 µM | – | –
CCOC(=O)c1c(NCc2ccccc2)n(-c2ccccc2)c(=S)n(-c2ccccc2)c1=O | – | > 100 µM | – | > 100 µM | – | > 100 µM | – | > 100 µM | – | > 100 µM | – | – | – | > 100 µM | – | > 100 µM | – | > 100 µM | > 100 µM | –
C=C1C(=O)O[C@H]2[C@H]1CC/C(CNC(=O)/C=C/c1ccccc1)=C\CC[C@@]1(C)O[C@@H]21 | 0.966 µM | 2.6 µM | – | – | 1.47 µM | 5.22 µM | 0.357 µM | 1.71 µM | 2.86 µM | 8.88 µM | 0.964 µM | 2.37 µM | 1.49 µM | 3.41 µM | 1.48 µM | 4.18 µM | 1.77 µM | 3.55 µM | 6.41 µM | 1.35 µM
CCN(CC)C(=S)SSC(=S)N(CC)CC | 17 µM and 15.4 µM | 31.8 µM and 30.1 µM | – | – | 17.7 µM and 16 µM | 46.6 µM and 48.5 µM | 11.6 µM and 18.3 µM | 27.9 µM and 38.4 µM | 22 µM and 18.6 µM | > 58 µM and 42.6 µM | 18.8 µM and 17.9 µM | 38.6 µM and 37.1 µM | 26.3 µM and 82.2 µM | 71.1 µM and 297 µM | 15.8 µM and 26.8 µM | 35.4 µM and 97.5 µM | 15.8 µM and 13.7 µM | 31 µM and 30.7 µM | 43.5 µM and 53.3 µM | 15.6 µM and 18.7 µM
Cc1ccc(Sc2oc(-c3ccc(C)cc3)nc2[P+](c2ccccc2)(c2ccccc2)c2ccccc2)cc1 | – | – | 0.286 µM | 1.09 µM | 0.319 µM | 1.11 µM | 0.148 µM | 0.379 µM | 0.399 µM | 1.66 µM | 0.404 µM | 1.53 µM | 1.12 µM | 2.63 µM | 0.595 µM | 1.87 µM | 0.303 µM | 1.41 µM | 1.2 µM | 0.336 µM
